Laboratory results taken from patent publication US11214803B2, “Modulators of YAP1 expression” (Ionis Pharmaceuticals, Inc., priority 2019, dated 2022).
Strand notation (5' to 3'): a small letter for the sugar, then the base; units joined by * are phosphorothioate-linked, units joined directly phosphodiester-linked; [ ] holds rarer units or linkages, { } end groups; capitals alone tell only the bases. k = constrained ethyl (cEt); [5mC] = 5-methylcytosine; d = 2'-deoxy (DNA)

System: Yap1 mRNA
Assay: Antisense inhibition of human Yap1 in A-431 cells by cEt gapmers, single dose (Example 2, RTS4814)
Format: cell-based
Summary of the method: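 Yap1 mRNA levels, by real-time RT-PCR (RTS4814) and corrected for total RNA via RIBOGREEN, are given as percent of untreated cells. Gapmers (16-mer, cEt wings, phosphorothioate, 5-methylC) were delivered without transfection at 2,000 nM to A-431 cells for about 48 hours.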

[1] = Table 22, Yap1 mRNA as percent of untreated control, 3-10-3 cEt gapmers, single dose
[2] = Table 5, A-431 cells, 5,000 cells per well, free uptake, 2,000 nM modified oligonucleotide, approx. 48 hours, RTS4814, normalized to RIBOGREEN, Yap1 mRNA relative to untreated control cells
[3] = Table 20, Yap1 mRNA, percent of untreated control, 3-10-3 cEt gapmers targeting SEQ ID NO.: 1 and 2
[4] = Table 6, A-431 cells, 5,000 cells per well, free uptake, 2,000 nM modified oligonucleotide, approx. 48 hours, RTS4814, normalized to RIBOGREEN, Yap1 mRNA relative to untreated control cells

1074856 (antisense kT*kT*kT*dG*dA*d[5mC]*dA*dA*dG*dT*dG*dT*dG*k[5mC]*kA*kT) [Compound 1074856]
YAP1 (% UTC) [1]: 15 % UTC

716542 (antisense k[5mC]*kT*kT*d[5mC]*d[5mC]*d[5mC]*dT*dG*dT*dG*dT*dT*d[5mC]*kA*kT*kT) [Compound 716542]
YAP1 (% UTC) [2]: 45 % UTC

1074353 (antisense kG*kA*k[5mC]*dA*d[5mC]*dT*dG*dT*dA*dG*d[5mC]*dT*dG*k[5mC]*kT*k[5mC]) [compound 1074353]
YAP1 (% UTC) (Yap1 mRNA as percent of untreated control, A-431 cells, 3-10-3 cEt gapmers targeting SEQ ID NO.: 1, and 2, Table 31): 17 % UTC

1074790 (k[5mC]*kA*kT*d[5mC]*dA*dA*d[5mC]*d[5mC]*dA*dT*dA*dA*dG*kT*kA*kG; antisense) [Compound 1074790]
YAP1 (% UTC) [3]: 28 % UTC

716558 (k[5mC]*kT*k[5mC]*dT*dT*dA*d[5mC]*dA*dT*d[5mC]*dT*dA*dA*kA*kA*k[5mC]; antisense) [Compound 716558]
YAP1 (% UTC) [4]: 81 % UTC

1074409 (antisense kG*kG*kA*dT*dT*dA*dA*dA*dG*dT*dA*dT*d[5mC]*kT*kT*kG) [Compound 1074409]
YAP1 (% UTC) (Table 23, Yap1 mRNA as percent of untreated control, 3-10-3 cEt gapmers, single dose): 6 % UTC

1074244 (antisense k[5mC]*kT*k[5mC]*dT*dG*dA*d[5mC]*d[5mC]*dA*dG*dA*dA*dG*kA*kT*kG) [Compound 1074244]
YAP1 (% UTC) (Table 18, A-431 cells, 5,000 cells per well, free uptake, 2,000 nM modified oligonucleotide, approx. 48 hours, RTS4814, normalized to RIBOGREEN, Yap1 mRNA as percent of untreated control): 95 % UTC

716381 (kT*kG*kT*d[5mC]*dT*dG*dA*dT*d[5mC]*dG*dA*dT*dG*kT*kG*kA; antisense) [Compound 716381]
YAP1 (% UTC) [4]: 35 % UTC

1076368 (antisense k[5mC]*kA*kT*dT*dT*dT*dA*dT*dG*dT*dA*dA*dG*kG*k[5mC]*k[5mC]) [compound 1076368]
YAP1 (% UTC) (Yap1 mRNA as percent of untreated control, A-431 cells, 3-10-3 cEt gapmers targeting SEQ ID NO.: 1, and 2, Table 30): 15 % UTC

1076550 (antisense kT*kA*k[5mC]*d[5mC]*dA*dA*d[5mC]*d[5mC]*dT*dG*dT*dA*dT*k[5mC]*k[5mC]*kA) [Compound 1076550]
YAP1 (% UTC) [3]: 61 % UTC

716368 (kG*kT*k[5mC]*dG*dG*dG*d[5mC]*dA*dG*d[5mC]*dT*dT*d[5mC]*k[5mC]*kG*kG; antisense) [Compound 716368]
YAP1 (% UTC) [2]: 86 % UTC

1076178 (k[5mC]*k[5mC]*kT*dG*dA*dA*dA*dT*dA*d[5mC]*dA*dG*dG*kT*kG*kT; antisense) [compound 1076178]
YAP1 (% UTC) (Table 32, Yap1 mRNA, percent of untreated control, 3-10-3 cEt gapmers targeting SEQ ID NO.: 1, and 2): 100 % UTC

716468 (kT*k[5mC]*kA*dT*d[5mC]*dA*dG*dA*dT*dA*dA*dT*dA*kT*k[5mC]*kT; antisense) [Compound 716468]
YAP1 (% UTC) [4]: 118 % UTC

1076275 (kG*kT*kA*dT*dT*dA*dG*dA*dT*dA*dA*dA*dG*k[5mC]*kA*kG; antisense) [compound 1076275]
YAP1 (% UTC) (Table 33, Yap1 mRNA, percent of untreated control, 3-10-3 cEt gapmers targeting SEQ ID NO.: 1, and 2): 10 % UTC

716557 (kA*kT*kT*dG*dG*dT*dA*d[5mC]*dT*dA*dT*dA*dT*kA*kT*kA; antisense) [Compound 716557]
YAP1 (% UTC) [2]: 80 % UTC

716457 (kA*kA*kA*dG*dG*dA*dT*dA*d[5mC]*dA*dT*dT*d[5mC]*k[5mC]*kA*k[5mC]; antisense) [Compound 716457]
YAP1 (% UTC) (A-431 cells, 5,000 cells per well, free uptake, 2,000 nM modified oligonucleotide, approx. 48 hours, RTS4814, normalized to RIBOGREEN, Table 4, asterisk (*) = targets amplicon region of primer probe set): 61 % UTC

1075302 (k[5mC]*k[5mC]*kT*dT*dA*dA*dA*dG*d[5mC]*dT*dT*d[5mC]*d[5mC]*kA*k[5mC]*k[5mC]; antisense) [Compound 1075302]
YAP1 (% UTC) [3]: 75 % UTC

1076136 (k[5mC]*kA*kA*d[5mC]*dA*dA*d[5mC]*d[5mC]*dT*d[5mC]*dA*dT*dG*kT*kA*kA; antisense) [Compound 1076136]
YAP1 (% UTC) [1]: 60 % UTC
